{"source": "patent US8158593B2", "about": "“GPR17 modulators, method of screening and uses thereof” (Universita' degli Studi di Milano, priority 2004, dated 2012)", "key": {"hGPR17 [1]": {"biological_target": "T1, hGPR17 (Homo sapiens, UniProt Q13304)", "T1 sequence (Q13304 29-367)": "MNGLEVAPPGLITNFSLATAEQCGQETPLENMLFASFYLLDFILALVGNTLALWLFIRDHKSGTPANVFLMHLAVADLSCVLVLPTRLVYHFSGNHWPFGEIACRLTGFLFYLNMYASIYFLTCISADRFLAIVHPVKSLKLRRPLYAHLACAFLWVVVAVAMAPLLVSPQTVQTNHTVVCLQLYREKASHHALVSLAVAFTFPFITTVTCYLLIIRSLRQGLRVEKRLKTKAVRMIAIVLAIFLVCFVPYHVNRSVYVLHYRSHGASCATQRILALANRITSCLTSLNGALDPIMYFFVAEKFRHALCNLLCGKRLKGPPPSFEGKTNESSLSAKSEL", "experiment": "[35S]GTPγS binding to membranes of 1321N1 cells expressing human GPR17", "format": "biochemical", "set-up": "expressed in transfected cells; host or cells: 1321N1 (A1, A5), COS-7 (A3, A6), HEK-293 (A4); pcDNA3.1", "conditions": "for effect on [35S]GTPγS binding (agonist response): tested at 10 and 50 μM, 1321N1 cells expressing hGPR17; for EC50: agonist, 1321N1 cells expressing human GPR17", "description": "(§1) [^35S]GTPγS Binding Assay. 1321N1 cells, COS-7 and HEK-293 cells (control and transfected cells) were homogenized in 5 mM TRIS-HCl, 2 mM EDTA, pH 7.4 and centrifuged at 48000 g for 15 min at 4° C. The resulting pellets (plasma membranes) were washed in 50 mM TRIS-HCl, 10 mM MgCl2, pH 7.4 and stored at −80° C. until used. Measurement of nucleotide-stimulated [^35S]GTPγS binding to membranes of cells expressing the human or rat GPR17 receptor was performed as previously described^9-11.\n(§2) To identify the endogenous ligand of GPR17, the cDNAs from human and rat GPR17 were cloned into the mammalian expression vector pcDNA3.1 and transfected in 1321N1, COS-7 and HEK-293 cells for functional characterization. GPR17 activation was assessed by testing the ability of exogenously-added ligands to increase [^35S]GTPγS binding to purified membranes obtained from transfected cells^9-11. […] The specificity of GPR17 responses were also challenged by assessing the ability of some purinergic and leukotriene receptor antagonists to counteract the increase of [^35S]GTPγS binding evoked by nucleotides and cys-LTs in 1321N1 cells expressing either the human or rat receptor. […] Because both P2Y^2,11,12 and CysLT receptors^3,13 may couple to G proteins of the Gi subfamily, to evaluate the involvement of this class of G-proteins, we preincubated 1321N1 cells expressing hGPR17 with pertussis toxin (PTX) which inactivates Gi proteins, prior to membrane preparation and [^35S]GTPγS binding.\n(§3) Table 1. Potency of various ligands on [^35S]GTPγS binding to membranes obtaind from 1321N1 cells-transfected with human or rat GPR17. […] All data represent the mean of triplicate determinations from 4-9 independent experiments."}, "rat GPR17": {"biological_target": "T2, rat GPR17 (Rattus norvegicus, UniProt Q09QM4)", "T2 construct": "expressed in transfected cells; host or cells: 1321N1; pcDNA3.1", "T2 sequence (Q09QM4 whole entry)": "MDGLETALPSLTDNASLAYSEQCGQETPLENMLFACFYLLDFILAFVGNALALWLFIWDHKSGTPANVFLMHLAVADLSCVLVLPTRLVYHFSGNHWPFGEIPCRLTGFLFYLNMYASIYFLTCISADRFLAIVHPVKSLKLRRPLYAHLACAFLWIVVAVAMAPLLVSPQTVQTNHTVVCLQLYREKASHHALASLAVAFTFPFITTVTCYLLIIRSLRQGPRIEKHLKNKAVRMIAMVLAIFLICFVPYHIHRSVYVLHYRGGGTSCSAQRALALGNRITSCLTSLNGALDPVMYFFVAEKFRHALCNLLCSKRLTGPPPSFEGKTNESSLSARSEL", "experiment": "[35S]GTPγS binding to membranes of 1321N1 cells expressing rat GPR17", "format": "biochemical", "conditions": "for IC50: rat GPR17; for EC50: agonist, 1321N1 cells expressing rat GPR17", "description": "as §1, §2, §3"}, "hGPR17 [2]": {"biological_target": "T1, hGPR17", "experiment": "[35S]GTPγS binding, COS-7 cells expressing hGPR17", "format": "biochemical", "set-up": "expressed in transfected cells; host or cells: COS-7 (A3, A6); pcDNA3.1", "conditions": "COS-7 cells transfected with hGPR17", "description": "as §1\nTo identify the endogenous ligand of GPR17, the cDNAs from human and rat GPR17 were cloned into the mammalian expression vector pcDNA3.1 and transfected in 1321N1, COS-7 and HEK-293 cells for functional characterization. GPR17 activation was assessed by testing the ability of exogenously-added ligands to increase [^35S]GTPγS binding to purified membranes obtained from transfected cells^9-11. […] The specificity of GPR17 responses were also challenged by assessing the ability of some purinergic and leukotriene receptor antagonists to counteract the increase of [^35S]GTPγS binding evoked by nucleotides and cys-LTs in 1321N1 cells expressing either the human or rat receptor. […]"}, "hGPR17 [3]": {"biological_target": "T1, hGPR17", "experiment": "Single cell calcium imaging in 1321N1 cells expressing hGPR17", "format": "cell-based", "set-up": "expressed in transfected cells; host or cells: 1321N1 (A1, A5), COS-7 (A3, A6), HEK-293 (A4); pcDNA3.1", "excerpt": "Polychrome IV (TILL Photonics, Germany) was used as light source. Fura-2 and EGFP fluorescence images were collected with a PCO Super […] (Axon Instruments, Forest City, Calif.) and analyzed with the Axon Imaging Workbench 2.2 software (Axon Instruments)."}, "hGPR17 [4]": {"biological_target": "T1, hGPR17", "experiment": "Single cell calcium imaging in COS-7 cells expressing hGPR17", "format": "cell-based", "set-up": "expressed in transfected cells; host or cells: COS-7 (A3, A6); pcDNA3.1", "excerpt": "(e-h) The same agonists induced no responses in cells transfected with the empty plasmid. […] Polychrome IV (TILL Photonics, Germany) was used as light source. Fura-2 and EGFP fluorescence images were collected with a PCO Super […] (Axon Instruments, Forest City, Calif.) and analyzed with the Axon Imaging Workbench 2.2 software (Axon Instruments)."}, "[5]": {"test_system": "ischemic brain damage (MCAo)", "experiment": "Permanent middle cerebral artery occlusion (MCAo), brain infarct size by MRI", "format": "in vivo, rat", "conditions": "400 ng/animal i.c.v. 48 and 24 h before and 10 min after MCAo", "description": "Quantitative analysis of infarct size volume at 24 and 48 h after MCAo from rats receiving vehicle (C1, n=5) or Mtk (2 mg/kg intravenously, i.v., 10 min after MCAO; n=6); vehicle (C2, n=5) or AR-C (4.5 μg/animal intracerebroventricularly, i.c.v., 10 min after MCAo, n=5), vehicle (C3, n=5) or either oligo616 or scrambled-oligo (400 ng/animal, i.c.v., 48, 24 before and 10 min after MCAo, n=5). Data are expressed as percentage variation of infarct volume at 24 and 48 hours after MCAo compared to 2 h considered as 100% (§ p<0.05, # p<0.01 vs volume at 2 hr; *p <0.05, **p<0.01 vs corresponding control evaluated at the same time point). Induction of focal brain ischemia in the rat. Male Sprague-Dawley rats (Charles River) underwent permanent middle cerebral artery occlusion (MCAo) as previously described^28,29. […] AR-C was utilized here to simply test the involvement of GPR17 in brain ischemia, and, being a very polar molecule which is likely to very poorly permeate the blood brain barrier, it was administered i.c.v. Oligo-616 and oligo-scramble (400 ng in 5 μl of physiological solution) were administered i.c.v three times to each rat 48, 24 h before and 10 minutes after MCAo. Control groups received corresponding vehicle i.c.v. Magnetic Resonance Imaging analysis. […]"}}, "note": "Like-named read-outs stand apart in the source and are kept apart here."}
{"compound": "O=c1ccn([C@@H]2O[C@H](COP(=O)(O)OP(=O)(O)OP(=O)(O)O)[C@@H](O)[C@H]2O)c(=O)[nH]1", "note": "[UTP]", "values": [{"measurement": "effect on [35S]GTPγS binding (agonist response)", "setting": "hGPR17 [1]", "result": "No other nucleotides or nucleosides (i.e., ATP, ADP, 2-methyl-thio-ADP, UTP, α,βmethylenATP and guanosine, all tested at 10 and 50 μM concentrations) had any effect"}]}
{"compound": "CSCCNc1nc(SCCC(F)(F)F)nc2c1ncn2C1OC(COP(=O)(O)OP(=O)(O)C(Cl)(Cl)P(=O)(O)O)C(O)C1O", "note": "(stereo not drawn) [AR-C69931MX, N6-methylthio-ethyl-2-trifluoromethyl-ethylthio-adenosin-5′beta-methylene, γ-dichloromethylene trisphosphate]", "values": [{"measurement": "IC50", "setting": "rat GPR17; antagonist of binding stimulated by 50 μM UDP-glucose", "result": "0.022 ± 0.0015", "unit": "nM"}]}
{"compound": "CSc1nc(N)c2ncn([C@@H]3O[C@H](COP(=O)(O)OP(=O)(O)O)[C@@H](O)[C@H]3O)c2n1", "note": "[2-methyl-thio-ADP]", "values": [{"measurement": "effect on [35S]GTPγS binding (agonist response)", "setting": "hGPR17 [1]", "result": "No other nucleotides or nucleosides (i.e., ATP, ADP, 2-methyl-thio-ADP, UTP, α,βmethylenATP and guanosine, all tested at 10 and 50 μM concentrations) had any effect"}]}
{"compound": "Nc1ncnc2c1ncn2[C@@H]1O[C@H](COP(=O)(O)OP(=O)(O)OP(=O)(O)O)[C@@H](O)[C@H]1O", "note": "[ATP]", "values": [{"measurement": "effect on [35S]GTPγS binding (agonist response)", "setting": "hGPR17 [1]", "result": "No other nucleotides or nucleosides (i.e., ATP, ADP, 2-methyl-thio-ADP, UTP, α,βmethylenATP and guanosine, all tested at 10 and 50 μM concentrations) had any effect"}]}
{"compound": "Nc1ncnc2c1ncn2[C@@H]1O[C@H](COP(=O)(O)CP(=O)(O)OP(=O)(O)O)[C@@H](O)[C@H]1O", "note": "[α,βmethylenATP]", "values": [{"measurement": "effect on [35S]GTPγS binding (agonist response)", "setting": "hGPR17 [1]", "result": "No other nucleotides or nucleosides (i.e., ATP, ADP, 2-methyl-thio-ADP, UTP, α,βmethylenATP and guanosine, all tested at 10 and 50 μM concentrations) had any effect"}]}
{"compound": "CCCCC/C=C\\C\\C=C/C=C/C=C/[C@@H](SC[C@H](N)C(=O)NCC(=O)O)[C@@H](O)CCCC(=O)O", "note": "[LTD, LTD4]", "values": [{"measurement": "response in [35S]GTPγS binding", "setting": "hGPR17 [2]", "result": "induced responses"}, {"measurement": "EC50", "setting": "hGPR17 [1]", "result": "7.2 ± 0.3", "unit": "nM"}, {"measurement": "cells showing rise of [Ca2+]i", "setting": "hGPR17 [3]", "result": "approximately 30%"}, {"measurement": "cells showing [Ca2+]i transient", "setting": "hGPR17 [4]", "result": "approximately 50%"}, {"measurement": "mean calcium response ΔF340/380", "setting": "hGPR17 [4]; n=22", "result": "0.18±0.03"}, {"measurement": "EC50", "setting": "rat GPR17", "result": "5.9 ± 0.4", "unit": "nM"}]}
{"compound": "PTX", "values": [{"measurement": "inhibition of agonist-stimulated [35S]GTPγS binding", "setting": "hGPR17 [1]; cells exposed to 100 ng/ml PTX for 18 h before membrane preparation, stimulated by UDP, UDP-galactose, UDP-glucose or LTD4", "result": "strongly inhibited"}]}
{"compound": "CCCCC/C=C\\C\\C=C/C=C/C=C/[C@@H](SC[C@H](NC(=O)CC[C@H](N)C(=O)O)C(=O)NCC(=O)O)[C@@H](O)CCCC(=O)O", "note": "[LTC, LTC4]", "values": [{"measurement": "response in [35S]GTPγS binding", "setting": "hGPR17 [2]", "result": "induced responses"}, {"measurement": "EC50", "setting": "hGPR17 [1]", "result": "0.33 ± 0.011", "unit": "nM"}, {"measurement": "EC50", "setting": "rat GPR17", "result": "65 ± 4.2", "unit": "nM"}]}
{"compound": "Nc1ncnc2c1ncn2[C@@H]1O[C@H](COP(=O)(O)OP(=O)(O)O)[C@@H](O)[C@H]1O", "note": "[ADP]", "values": [{"measurement": "effect on [35S]GTPγS binding (agonist response)", "setting": "hGPR17 [1]", "result": "No other nucleotides or nucleosides (i.e., ATP, ADP, 2-methyl-thio-ADP, UTP, α,βmethylenATP and guanosine, all tested at 10 and 50 μM concentrations) had any effect"}]}
{"compound": "Nc1nc2c(ncn2[C@@H]2O[C@H](CO)[C@@H](O)[C@H]2O)c(=O)[nH]1", "note": "[guanosine]", "values": [{"measurement": "effect on [35S]GTPγS binding (agonist response)", "setting": "hGPR17 [1]", "result": "No other nucleotides or nucleosides (i.e., ATP, ADP, 2-methyl-thio-ADP, UTP, α,βmethylenATP and guanosine, all tested at 10 and 50 μM concentrations) had any effect"}]}
{"compound": "CC(C)(O)c1ccccc1CC[C@@H](SCC1(CC(=O)O)CC1)c1cccc(/C=C/c2ccc3ccc(Cl)cc3n2)c1", "note": "[Montelukast]", "values": [{"measurement": "IC50", "setting": "hGPR17 [1]", "result": "60 ± 4.3", "unit": "nM"}]}
{"compound": "oligo241: antisense oligonucleotide designed on the sequence of rGPR17 mRNA, SEQ ID NO: 2, unmodified (antisense GGGATCACAAGTCAGGCAC; unmodified DNA; listed as Rattus norvegicus)", "values": [{"measurement": "evolution of brain infarct size (MRI)", "setting": "[5]", "result": "smaller protective effect"}]}
{"compound": "N6-methyl-adenosin-3′,5′-bis-phosphate [MRS 2179]", "values": [{"measurement": "IC50", "setting": "hGPR17 [1]; antagonist of binding stimulated by 50 μM UDP-glucose, human GPR17", "result": "508 ± 29", "unit": "nM"}]}
{"compound": "O=C(Nc1cccc2c(=O)cc(-c3nnn[nH]3)oc12)c1ccc(OCCCCc2ccccc2)cc1", "note": "[Pranlukast]", "values": [{"measurement": "IC50", "setting": "hGPR17 [1]; antagonist of activation induced by 100 nM LTD4, human GPR17", "result": "10.5 ± 1.2", "unit": "nM"}, {"measurement": "IC50", "setting": "rat GPR17; antagonist of activation induced by 100 nM LTD4", "result": "31 ± 2.4", "unit": "nM"}]}
